Results on two compounds are retold here after EP0702683B1, “06-SUBSTITUTED GUANINE DERIVATIVES, A PROCESS FOR THEIR PREPARATION AND THEIR USE IN TREATING TUMOUR CELLS” (Cancer Research Technology Limited, priority 1993, dated 1994).

Each structure is given as a SMILES string. Read-outs that look alike come from different tables or passages of the source.

In series [1] the target is T1, ATase (Homo sapiens, UniProt P16455).
T1 sequence (P16455 1-207): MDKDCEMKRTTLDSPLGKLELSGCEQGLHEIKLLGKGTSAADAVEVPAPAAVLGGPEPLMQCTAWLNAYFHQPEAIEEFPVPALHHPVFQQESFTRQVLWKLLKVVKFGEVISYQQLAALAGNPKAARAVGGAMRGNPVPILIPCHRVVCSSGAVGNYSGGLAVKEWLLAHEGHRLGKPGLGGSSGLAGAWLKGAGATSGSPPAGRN
Description: Inactivation of ATase activity in Raji cells. The series is classed as cell-based. Also on record: endogenous in cells; host or cells: Raji. On the procedure:
(§1) Mammalian cells were cultured under standard conditions. For example, Raji (a human lymphoblastoid cell line from a Burkitt's lymphoma) cells were grown in suspension culture in RPMI medium supplemented with 10% horse serum. A375M cells are human melanoma cells from which the xenografts described below were established following subcutaneous injection into nude mice: WiDr cells are a human colon carcinoma cell line: Hamster+120 cells are a mitozolomide-selected subline of a Chinese hamster lung fibroblast V79 cell line called RJKO: Yoshida cells are a rat carcinosarcoma cell line and YRbus is a busulphan resistant subline thereof: XP cells are an SV40-transformed fibroblast cell line originally from the skin of a Xeroderma pigmentosum patient, pHMGhAT2b cells are a clone of these cells that have been transfected with a mammalian cell expression vector containing the human ATase cDNA and pHMGla cells are a clone that have been transfected with the expression vector only (i.e. one not containing the human ATase cDNA). Cell pellets were resuspended in cold (4°C) buffer I containing 2 µg/ml leupeptin and sonicated for 10 seconds at 12 µ peak to peak distance. After cooling in ice, the cells were sonicated for a further 10 seconds at 18 µ. Immediately after sonication, 0.01 volumes of 8.7 mg/ml phenylmethanesulphonylfluoride in ethanol was added and the sonicates centrifuged at 15 000 g for 10 minutes at 4°C to pellet cell debris. The supernatant was kept for determination of ATase activity (see below).
Cells were diluted to 10^6/ml in culture medium containing either the appropriate concentration of inactivator or an equivalent volume of vehicle (DMSO). Following incubation at 37°C for 2 hours the cells were harvested by centrifugation, washed twice with PBS and the resulting cell pellets (between 1-2 x 10^7 per pellet) stored at -20°C.

Series [2] can be described thus: Stability of inactivators at 37°C (spectrophotometric half life). The series is classed as physicochemical. The essentials:
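Inactivators diluted from 10mM DMSO stock to 0.1mM in degassed buffer I (1mM EDTA, 50mM Tris pH 8.3) or PBS (pH 7-7.2) at 37°C. UV scans at compound-specific wavelength every 3-10 minutes for up to 80 hours; T1/2 extrapolated from percentage absorbance change versus time.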

The target of series [3] is T1, ATase. Description: In vitro ATase inactivation assay with purified recombinant human ATase. The series is classed as biochemical. The arrangement: made in house. Particulars: for effectiveness in the in vitro ATase inactivation assay compared with BeG: Figure 1, in words. On the procedure:
The cDNA cloning and overexpression of the human ATase has been reported previously^23. Purification of the recombinant proteins was achieved either by affinity chromatography through a DNA-cellulose column as described by Wilkinson et al.,^25, 26, or by DEAE-cellulose ion-exchange chromatography. For the latter, the ATase protein was partially purified by ammonium sulphate precipitation (30 - 60%) and dialysed against 10 mM Tris-HCl pH 7.5, 1 mM DTT, 2 mM EDTA, 10% glycerol, before loading on a DEAF-cellulose column. The ATase was then eluted with a 0-0.1 M NaCl gradient.
Compounds to be tested were dissolved in DMSO to a final concentration of 10 mM and diluted just before use in buffer I containing 1 mg/ml bovine serum albumin (IBSA). Recombinant ATase was diluted in IBSA and titrated in order that the reaction be conducted under ATase, and not substrate, limiting conditions. In each assay, fixed amounts of ATase (60-75 fmol) were incubated with varying amounts of 0^6-benzylguanine, or test compound in a total volume of 200 µl of IBSA containing 10 µg of calf thymus DNA at 37°C for 1 hour. The [^3H]-methylated-DNA substrate (100 µl containing 6.7 µg of DNA and 100 fmol of 0^6-methylguanine) was added and incubation continued at 37° for 1 hour, until the reaction was completed. Following acid hydrolysis of the DNA as previously described^21 the [^3H]-methylated protein was recovered and quantitated by liquid scintillation counting. Samples were typically assayed in duplicate and experiments repeated several times. I50 is the concentration of inactivator required to produce a 50% reduction in ATase activity.

The target of series [4] is T1, ATase. Description: Inactivation of ATase activity in WiDr cells. The arrangement: endogenous in cells; host or cells: Raji. The series is classed as cell-based. On the procedure: as §1, with “Immediately after sonication, 0.01 volumes of 8.7 mg/ml phenylmethanesulphonylfluoride in ethanol was added and the sonicates centrifuged at 15 000 g for 10 minutes at 4°C to pellet cell debris. The supernatant was kept for determination of ATase activity (see below).” left out

Series [5] deals with ATase. Description: Inactivation of ATase in mammalian cells, summary over cell lines. The settings on record: range over the cell lines of Table 5 (table head: µM; no unit in the sentence); read-out: I50 values for ATase inactivation in human, rat and Chinese hamster cells. The series is classed as cell-based. As to the method: Mammalian cells were cultured under standard conditions. For example, Raji (a human lymphoblastoid cell line from a Burkitt's lymphoma) cells were grown in suspension culture in RPMI medium supplemented with 10% horse serum. […]
Cells were diluted to 10^6/ml in culture medium containing either the appropriate concentration of inactivator or an equivalent volume of vehicle (DMSO). […] ATase activity was determined as described above, in duplicate sonicated cell extracts and expressed as the percentage activity remaining based on that present in the untreated controls (for example 350-450 fm/mg in Raji cells).

The target in series [6] is T2, ATase (Rattus norvegicus, UniProt P24528).
T2 construct: endogenous in cells; host or cells: Yoshida
T2 sequence (P24528 1-209): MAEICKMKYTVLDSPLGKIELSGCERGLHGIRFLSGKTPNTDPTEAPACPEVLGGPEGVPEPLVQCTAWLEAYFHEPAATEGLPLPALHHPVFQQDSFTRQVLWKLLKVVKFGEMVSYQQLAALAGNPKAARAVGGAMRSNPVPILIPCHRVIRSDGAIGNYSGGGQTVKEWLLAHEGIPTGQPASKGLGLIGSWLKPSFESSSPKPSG
Put plainly: Inactivation of ATase activity in Yoshida cells. The series is classed as cell-based. As to the method:
as §1
Cells were diluted to 10^6/ml in culture medium containing either the appropriate concentration of inactivator or an equivalent volume of vehicle (DMSO). Following incubation at 37°C for 2 hours the cells were harvested by centrifugation, washed twice with PBS and the resulting cell pellets (between 1-2 x 10^7 per pellet) stored at -20°C. ATase activity was determined as described above, in duplicate sonicated cell extracts and expressed as the percentage activity remaining based on that present in the untreated controls (for example 350-450 fm/mg in Raji cells).

The target in series [7] is T1, ATase. Description: Inactivation of ATase activity in XP cells. The series is classed as cell-based. The arrangement: endogenous in cells; host or cells: Raji. As to the method: as §1, with “Immediately after sonication, 0.01 volumes of 8.7 mg/ml phenylmethanesulphonylfluoride in ethanol was added and the sonicates centrifuged at 15 000 g for 10 minutes at 4°C to pellet cell debris. The supernatant was kept for determination of ATase activity (see below).” left out

Where [8] appears, read: 0.1mM in PBS (pH 7-7.2), read-out: T1/2(h) in PBS (converted).
Setting [9] is: 0.1mM in buffer I (1mM EDTA, 50mM Tris pH 8.3), read-out: T1/2(h) in Buffer I (converted).

Turning to `Nc1nc(OCc2ccco2)c2nc[nH]c2n1` [B.4203, O^6-furfurylguanine], the IC50 against ATase [1] is 0.04 µM; at ATase [1] (Human Raji cells, 2 hours at 37°C (Table 5), read-out: Inactivation of ATase in Mammalian Cells I50(µM) Human Raji), 0.04 µM; at ATase [3] it was 80 nM; on ATase [4] (Human WiDr cells, 2 hours at 37°C, read-out: Inactivation of ATase in Mammalian Cells I50(µM) Human WiDr), 0.08 µM; with ATase [5] it was 0.04 to 0.12 µM; at ATase [6] (Rat Yoshida cells, 2 hours at 37°C, read-out: Inactivation of ATase in Mammalian Cells I50(µM) Rat Yoshida) it was 0.06 µM. The IC50 at ATase [7] (Human XP cells, 2 hours at 37°C, read-out: Inactivation of ATase in Mammalian Cells I50(µM) Human XP) came to 0.06 µM. Moreover, the values for the half-life at 100 µM in series [2] (setting [8]) and in series [2] (setting [9]) were 0.17 h and 0.3 h, respectively. The “effectiveness in the in vitro ATase inactivation assay compared with BeG” value on ATase [3] is “not as effective as BeG”.

Turning to `Nc1nc(OCc2cccs2)c2nc[nH]c2n1` [B.4205, O^6-thenylguanine], the IC50 was 0.02 µM against ATase [1]; 0.02 µM at ATase [1] (read-out: Inactivation of ATase in Mammalian Cells I50(µM) Human Raji, Human Raji cells, 2 hours at 37°C (Table 5)); 18 nM on ATase [3]; 0.02 µM against ATase [4]; 0.02 to 0.03 µM in the series with ATase [5]; 0.02 µM against ATase [6]. Further, the IC50 against ATase [7] stood at 0.03 µM. The half-life at 100 µM in series [2] (setting [8]) was 0.6 h; in series [2] (setting [9]), 1.2 h. In addition, the “effectiveness in the in vitro ATase inactivation assay compared with BeG” value on ATase [3] is “considerably better”.
